Assay results reported in PubChem BioAssay AID2060503 (Molecular Pharmacology Branch, DTP, NCI, 2025).

Tested on: 817829-284-R-J1-PDC complex spheroids, viability
Test: Anticancer human tumor 817829-284-R-J1-PDC patient-derived colon adenocarcinoma cell line growth inhibition [GQUAD]
Conditions: second compound 0.0316 µM; first compound 3.16 µM; active compounds read low
How it was run: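 Viability of tumor cells grown as complex spheroids with endothelial and stromal cells, exposed to drug combinations. Top concentration at or near clinical Cmax (else 10 microM), diluted in half-log increments.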
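Further: spheroids exposed to agents for 7 days before readout; percent viability relative to DMSO vehicle control taken as 100%.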

Question: `CCCS(=O)(=O)Nc1ccc(F)c(C(=O)c2c[nH]c3ncc(-c4ccc(Cl)cc4)cc23)c1F` + CN(C)c1ccc(Nc2c3ccc(NC(=O)CCN4CCCC4)cc3nc3cc(NC(=O)CCN4CCCC4)ccc23)cc1 was tested. Which viability, T/C did it give?
Answer: Its viability, T/C is 80.8%.

Question: Which viability, T/C does the source give for `COc1ncnc(C2CC2)c1-c1ncc2cnn(Cc3ccc(-c4nc(C(F)(F)F)cn4C(C)C)cc3)c2n1` + CN(C)c1ccc(Nc2c3ccc(NC(=O)CCN4CCCC4)cc3nc3cc(NC(=O)CCN4CCCC4)ccc23)cc1 here?
Answer: Its viability, T/C is 108%.

Question: For `O=C(NO)c1cnc(N2CCN(S(=O)(=O)c3ccc4ccccc4c3)CC2)nc1` + CN(C)c1ccc(Nc2c3ccc(NC(=O)CCN4CCCC4)cc3nc3cc(NC(=O)CCN4CCCC4)ccc23)cc1, which viability, T/C is on record?
Answer: The viability, T/C was 0.18%.

Question: For `CC1COCCN1c1cc(C2(O)CC3CCC(C2)O3)c2cnn(-c3ccn[nH]3)c2n1` (stereo unspecified) + Cc1[nH]c2ccc(F)cc2c1-c1nc2c3cccnc3c3ncccc3c2[nH]1, which viability, T/C is on record?
Answer: Its viability, T/C is 5.12%.

Same assay, conditions: second compound 0.0316 µM; first compound 10 µM; active compounds read low

Question: `C=CCn1c(=O)c2cnc(Nc3ccc(N4CCN(C)CC4)cc3)nc2n1-c1cccc(C(C)(C)O)n1` + CN(C)c1ccc(Nc2c3ccc(NC(=O)CCN4CCCC4)cc3nc3cc(NC(=O)CCN4CCCC4)ccc23)cc1 was tested. Which viability, T/C did it give?
Answer: The viability, T/C was 6.74%.

Question: With `CCCS(=O)(=O)Nc1ccc(F)c(C(=O)c2c[nH]c3ncc(-c4ccc(Cl)cc4)cc23)c1F` + CN(C)c1ccc(Nc2c3ccc(NC(=O)CCN4CCCC4)cc3nc3cc(NC(=O)CCN4CCCC4)ccc23)cc1 as the molecule, how does the viability, T/C read?
Answer: Its viability, T/C is 22.4%.

Question: Which viability, T/C does the source give for `COc1ncnc(C2CC2)c1-c1ncc2cnn(Cc3ccc(-c4nc(C(F)(F)F)cn4C(C)C)cc3)c2n1` + CN(C)c1ccc(Nc2c3ccc(NC(=O)CCN4CCCC4)cc3nc3cc(NC(=O)CCN4CCCC4)ccc23)cc1 here?
Answer: The viability, T/C was 115%.

Question: For `O=C(NO)c1cnc(N2CCN(S(=O)(=O)c3ccc4ccccc4c3)CC2)nc1` + CN(C)c1ccc(Nc2c3ccc(NC(=O)CCN4CCCC4)cc3nc3cc(NC(=O)CCN4CCCC4)ccc23)cc1, which viability, T/C is on record?
Answer: The viability, T/C was 0.2%.

Question: Which viability, T/C does the source give for `CC1COCCN1c1cc(C2(O)CC3CCC(C2)O3)c2cnn(-c3ccn[nH]3)c2n1` (stereo unspecified) + Cc1[nH]c2ccc(F)cc2c1-c1nc2c3cccnc3c3ncccc3c2[nH]1 here?
Answer: Its viability, T/C is 3.63%.

Same assay, conditions: second compound 0.1 µM; first compound 0.000999 µM; active compounds read low

Question: With `Cc1[nH]c2ccccc2c1CCNCc1ccc(/C=C/C(=O)NO)cc1` + CN(C)c1ccc(Nc2c3ccc(NC(=O)CCN4CCCC4)cc3nc3cc(NC(=O)CCN4CCCC4)ccc23)cc1 as the molecule, how does the viability, T/C read?
Answer: Its viability, T/C is 89.8%.

Same assay, conditions: second compound 0.1 µM; first compound 0.00316 µM; active compounds read low

Question: For `Cc1[nH]c2ccccc2c1CCNCc1ccc(/C=C/C(=O)NO)cc1` + CN(C)c1ccc(Nc2c3ccc(NC(=O)CCN4CCCC4)cc3nc3cc(NC(=O)CCN4CCCC4)ccc23)cc1, which viability, T/C is on record?
Answer: The viability, T/C was 110%.

Same assay, conditions: second compound 0.1 µM; first compound 0.00999 µM; active compounds read low

Question: How did the viability, T/C turn out when `Cc1[nH]c2ccccc2c1CCNCc1ccc(/C=C/C(=O)NO)cc1` + CN(C)c1ccc(Nc2c3ccc(NC(=O)CCN4CCCC4)cc3nc3cc(NC(=O)CCN4CCCC4)ccc23)cc1 was run?
Answer: The viability, T/C was 109%.

Same assay, conditions: second compound 0.1 µM; first compound 0.0316 µM; active compounds read low

Question: With `C=CCn1c(=O)c2cnc(Nc3ccc(N4CCN(C)CC4)cc3)nc2n1-c1cccc(C(C)(C)O)n1` + CN(C)c1ccc(Nc2c3ccc(NC(=O)CCN4CCCC4)cc3nc3cc(NC(=O)CCN4CCCC4)ccc23)cc1 as the molecule, how does the viability, T/C read?
Answer: The viability, T/C was 88.5%.

Question: For `CCCS(=O)(=O)Nc1ccc(F)c(C(=O)c2c[nH]c3ncc(-c4ccc(Cl)cc4)cc23)c1F` + CN(C)c1ccc(Nc2c3ccc(NC(=O)CCN4CCCC4)cc3nc3cc(NC(=O)CCN4CCCC4)ccc23)cc1, which viability, T/C is on record?
Answer: The viability, T/C was 98.9%.

Question: `COc1ncnc(C2CC2)c1-c1ncc2cnn(Cc3ccc(-c4nc(C(F)(F)F)cn4C(C)C)cc3)c2n1` + CN(C)c1ccc(Nc2c3ccc(NC(=O)CCN4CCCC4)cc3nc3cc(NC(=O)CCN4CCCC4)ccc23)cc1 was tested. Which viability, T/C did it give?
Answer: Its viability, T/C is 100%.

Question: Which viability, T/C does the source give for `Cc1[nH]c2ccccc2c1CCNCc1ccc(/C=C/C(=O)NO)cc1` + CN(C)c1ccc(Nc2c3ccc(NC(=O)CCN4CCCC4)cc3nc3cc(NC(=O)CCN4CCCC4)ccc23)cc1 here?
Answer: The viability, T/C was 72.3%.

Question: For `O=C(NO)c1cnc(N2CCN(S(=O)(=O)c3ccc4ccccc4c3)CC2)nc1` + CN(C)c1ccc(Nc2c3ccc(NC(=O)CCN4CCCC4)cc3nc3cc(NC(=O)CCN4CCCC4)ccc23)cc1, which viability, T/C is on record?
Answer: The viability, T/C was 116%.

Question: `CC1COCCN1c1cc(C2(O)CC3CCC(C2)O3)c2cnn(-c3ccn[nH]3)c2n1` (stereo unspecified) + Cc1[nH]c2ccc(F)cc2c1-c1nc2c3cccnc3c3ncccc3c2[nH]1 was tested. Which viability, T/C did it give?
Answer: Its viability, T/C is 32%.

Same assay, conditions: second compound 0.1 µM; first compound 0.0999 µM; active compounds read low

Question: Which viability, T/C does the source give for `Cc1[nH]c2ccccc2c1CCNCc1ccc(/C=C/C(=O)NO)cc1` + CN(C)c1ccc(Nc2c3ccc(NC(=O)CCN4CCCC4)cc3nc3cc(NC(=O)CCN4CCCC4)ccc23)cc1 here?
Answer: Its viability, T/C is 3.79%.

Same assay, conditions: second compound 0.1 µM; first compound 0.1 µM; active compounds read low

Question: Which viability, T/C does the source give for `C=CCn1c(=O)c2cnc(Nc3ccc(N4CCN(C)CC4)cc3)nc2n1-c1cccc(C(C)(C)O)n1` + CN(C)c1ccc(Nc2c3ccc(NC(=O)CCN4CCCC4)cc3nc3cc(NC(=O)CCN4CCCC4)ccc23)cc1 here?
Answer: Its viability, T/C is 101%.

Question: For `CCCS(=O)(=O)Nc1ccc(F)c(C(=O)c2c[nH]c3ncc(-c4ccc(Cl)cc4)cc23)c1F` + CN(C)c1ccc(Nc2c3ccc(NC(=O)CCN4CCCC4)cc3nc3cc(NC(=O)CCN4CCCC4)ccc23)cc1, which viability, T/C is on record?
Answer: Its viability, T/C is 116%.

Question: How did the viability, T/C turn out when `COc1ncnc(C2CC2)c1-c1ncc2cnn(Cc3ccc(-c4nc(C(F)(F)F)cn4C(C)C)cc3)c2n1` + CN(C)c1ccc(Nc2c3ccc(NC(=O)CCN4CCCC4)cc3nc3cc(NC(=O)CCN4CCCC4)ccc23)cc1 was run?
Answer: The viability, T/C was 123%.

Question: For `O=C(NO)c1cnc(N2CCN(S(=O)(=O)c3ccc4ccccc4c3)CC2)nc1` + CN(C)c1ccc(Nc2c3ccc(NC(=O)CCN4CCCC4)cc3nc3cc(NC(=O)CCN4CCCC4)ccc23)cc1, which viability, T/C is on record?
Answer: Its viability, T/C is 101%.

Question: How did the viability, T/C turn out when `CC1COCCN1c1cc(C2(O)CC3CCC(C2)O3)c2cnn(-c3ccn[nH]3)c2n1` (stereo unspecified) + Cc1[nH]c2ccc(F)cc2c1-c1nc2c3cccnc3c3ncccc3c2[nH]1 was run?
Answer: Its viability, T/C is 12.5%.

Same assay, conditions: second compound 0.1 µM; first compound 0.316 µM; active compounds read low

Question: `C=CCn1c(=O)c2cnc(Nc3ccc(N4CCN(C)CC4)cc3)nc2n1-c1cccc(C(C)(C)O)n1` + CN(C)c1ccc(Nc2c3ccc(NC(=O)CCN4CCCC4)cc3nc3cc(NC(=O)CCN4CCCC4)ccc23)cc1 was tested. Which viability, T/C did it give?
Answer: The viability, T/C was 29.5%.

Question: With `CCCS(=O)(=O)Nc1ccc(F)c(C(=O)c2c[nH]c3ncc(-c4ccc(Cl)cc4)cc23)c1F` + CN(C)c1ccc(Nc2c3ccc(NC(=O)CCN4CCCC4)cc3nc3cc(NC(=O)CCN4CCCC4)ccc23)cc1 as the molecule, how does the viability, T/C read?
Answer: Its viability, T/C is 100%.

Question: Which viability, T/C does the source give for `COc1ncnc(C2CC2)c1-c1ncc2cnn(Cc3ccc(-c4nc(C(F)(F)F)cn4C(C)C)cc3)c2n1` + CN(C)c1ccc(Nc2c3ccc(NC(=O)CCN4CCCC4)cc3nc3cc(NC(=O)CCN4CCCC4)ccc23)cc1 here?
Answer: Its viability, T/C is 104%.

Question: With `Cc1[nH]c2ccccc2c1CCNCc1ccc(/C=C/C(=O)NO)cc1` + CN(C)c1ccc(Nc2c3ccc(NC(=O)CCN4CCCC4)cc3nc3cc(NC(=O)CCN4CCCC4)ccc23)cc1 as the molecule, how does the viability, T/C read?
Answer: The viability, T/C was 0.12%.

Question: How did the viability, T/C turn out when `O=C(NO)c1cnc(N2CCN(S(=O)(=O)c3ccc4ccccc4c3)CC2)nc1` + CN(C)c1ccc(Nc2c3ccc(NC(=O)CCN4CCCC4)cc3nc3cc(NC(=O)CCN4CCCC4)ccc23)cc1 was run?
Answer: The viability, T/C was 4.32%.

Question: For `CC1COCCN1c1cc(C2(O)CC3CCC(C2)O3)c2cnn(-c3ccn[nH]3)c2n1` (stereo unspecified) + Cc1[nH]c2ccc(F)cc2c1-c1nc2c3cccnc3c3ncccc3c2[nH]1, which viability, T/C is on record?
Answer: Its viability, T/C is 7.69%.

Same assay, conditions: second compound 0.1 µM; first compound 1 µM; active compounds read low

Question: How did the viability, T/C turn out when `C=CCn1c(=O)c2cnc(Nc3ccc(N4CCN(C)CC4)cc3)nc2n1-c1cccc(C(C)(C)O)n1` + CN(C)c1ccc(Nc2c3ccc(NC(=O)CCN4CCCC4)cc3nc3cc(NC(=O)CCN4CCCC4)ccc23)cc1 was run?
Answer: Its viability, T/C is 9.11%.
